Results as given in patent publication US4524147A, “Uracil derivatives, process for preparing same, and pharmaceutical compositions comprising same” (Mitsui Toatsu Chemicals, Incorporated, priority 1981, dated 1985).
Structures can show the parent of a compound that is named as a salt.

Legend:
delayed hypersensitivity = experiment: Augmentation test of delayed hypersensitivity (picryl chloride, mouse ear thickness); format: in vivo, mice (ICR strain, male); settings: 50 mg/kg oral, simultaneously with sensitization; 24 hours after challenge; average of 16 measurements of 8 animals; * P<0.05 vs control
Text: These facts are more fully explained with reference to the following evaluation tests. A variety of experimental systems are being commonly used to test immunomodulatory activity in animals. Of such tests, the most typical one is an augmentation test of delayed hypersensitivity as shown below. […] L., and Ptak, W. "Contact and delayed hypersensitivity in the mouse I. Active sensitization and passive transfer," Immunology, 15, 405-416(1968)). In the following Evaluation Test 1, this experimental system was used to carry out an augmentation test of delayed hypersensitivity. [Augmentation test of delayed hypersensitivity] Male mice of the ICR strain, weighing approximately 30 g, were used in groups of eight. These animals were sensitized by shaving the hair on the abdomen and applying thereto a 3% solution of picryl chloride in a 4:1 mixture of olive oil and acetone. Simultaneously with this sensitization, each of two compounds of the present invention was dissolved or suspended in physiological saline containing 0.2% carboxymethyl cellulose and administered orally to the animals in a dose of 50 mg per kg of body weight. A control group was treated solely with physiological saline containing 0.2% carboxymethyl cellulose. Seven days after sensitization, delayed hypersensitivity was challenged by wrapping the tips of a forceps with pieces of felt, impregnating the felt with olive oil containing 1% picryl chloride, and pinching both ears of each animal. The thicknesses of the ears were measured before and 24 hours after the challenge, and the calculated percent increase of ear thickness (the average of 16 measurements made of the ears of 8 animals) is shown in Table 1. For purposes of comparison, the results of an experiment with Lavamisole hydrochloride are also given. The test results thus obtained were subjected to statistical analysis using the F.t test. The values marked with an asterisk (*) indicate that, when they were compared with the value of the control group, the differences were significant at P<0.05.

[1] = Test for acute oral toxicity; set-up: species or system mice (ddY strain; settings: mouse, in vivo, 5 male ddY mice per group, observed for 7 days, estimated
Experimental: The toxicity of the active ingredients of some typical pharmaceutical composition of the present invention was examined in the following Evaluation Test 3.
[Test for acute oral toxicity]
Each of the compounds used in Evaluation Tests 1 and 2 was dissolved or suspended in physiological saline and administered orally to a group of 5 male mice of the ddY strain. The LD50 value of the compound was estimated by observing these animals for 7 days after administration.

adjuvant arthritis = experiment: Adjuvant arthritis test (hind paw swelling); format: in vivo, rats (SD strain, male); settings: 5 mg/kg subcutaneous, nine times before and after injection of adjuvant; left hind paw volume; * P<0.05 vs control
Experimental: The adjuvant arthritis induced in rats by injection of a tubercle bacillus adjuvant is frequently used as an experimental model for rheumatoid arthritis in man.
Although the mechanism by which this phenomenon occurs is not completely elucidated, cellular immunity is known to play an important role. Employing this well-known adjuvant arthritis test, the same compounds of the present invention were further examined for immunomodulatory activity.
[Adjuvant arthritis test]
An adjuvant was prepared by suspending 0.4 mg of killed and dried cells of the human type tubercle bacillus (Mycobacterium tuberclosis) in 0.1 ml of liquid paraffin, and inoculated intradermally into the right hind paw of 8-weeks-old male rats of the SD strain. Each of the two compounds of the present invention was subcutaneously administered nine times before and after injection of the adjuvant. These compounds were dissolved or suspended in physiological saline containing 0.2% carboxymethyl cellulose and administered in an amount of 5 mg per kg of body weight. The volume of the left hind paw of each animal was daily measured from the day of inoculation of the adjuvant to the end of the test, and the calculated percent inhibition of swelling is shown in Table 2. For purposes of comparison, the results of an experiment with Levamisole hydrochloride are also given. The test results thus obtained were subjected to statistical analysis using the F.t test. The values marked with an asterisk (*) indicate that, when they were compared with the value of a control group treated solely with physiological saline containing 0.2% carboxymethyl cellulose, the differences were significant at P<0.05.

Compound: c1ccc([C@H]2CN3CCSC3=N2)cc1 [Levamisole hydrochloride, reference compound]
- Percent increase of ear thickness (delayed hypersensitivity): 31.2%
- LD50 at 168 h [1]: 200 to 300 mg/kg
- Percent inhibition of swelling as compared with control group (average of 16-20 days) (adjuvant arthritis): 19.8%

Compound: O=C(C(=O)n1ccc(=O)[nH]c1=O)n1ccc(=O)[nH]c1=O [drawing 4]
- Percent increase of ear thickness (delayed hypersensitivity): 33.9%

Compound: Cc1cn(C(=O)C(=O)n2cc(C)c(=O)[nH]c2=O)c(=O)[nH]c1=O [drawing 5]
- Percent increase of ear thickness (delayed hypersensitivity): 28.6%

Compound: O=C(C(=O)n1ccc(=O)[nH]c1=O)n1ccc(=O)[nH]c1=O [drawing 6]
- Percent inhibition of swelling as compared with control group (average of 16-20 days) (adjuvant arthritis): 41.4%

Compound: Cc1cn(C(=O)C(=O)n2cc(C)c(=O)[nH]c2=O)c(=O)[nH]c1=O [drawing 7]
- Percent inhibition of swelling as compared with control group (average of 16-20 days) (adjuvant arthritis): 29.9%
